{"source": "patent US11524966B1", "about": "(Valo Early Discovery, Inc., priority 2017, dated 2022)", "data": [{"biological_target": "T1, USP28 (USP28-5(1-1077)-TEV-6*His; LifeSensors) (Homo sapiens, UniProt Q96RU2)", "T1 construct": "construct USP28 (USP28-5(1-1077)-TEV-6*His; LifeSensors); TEV cleavage site (C); 6xHis (C); purchased LifeSensors", "T1 sequence (Q96RU2 1-1077)": "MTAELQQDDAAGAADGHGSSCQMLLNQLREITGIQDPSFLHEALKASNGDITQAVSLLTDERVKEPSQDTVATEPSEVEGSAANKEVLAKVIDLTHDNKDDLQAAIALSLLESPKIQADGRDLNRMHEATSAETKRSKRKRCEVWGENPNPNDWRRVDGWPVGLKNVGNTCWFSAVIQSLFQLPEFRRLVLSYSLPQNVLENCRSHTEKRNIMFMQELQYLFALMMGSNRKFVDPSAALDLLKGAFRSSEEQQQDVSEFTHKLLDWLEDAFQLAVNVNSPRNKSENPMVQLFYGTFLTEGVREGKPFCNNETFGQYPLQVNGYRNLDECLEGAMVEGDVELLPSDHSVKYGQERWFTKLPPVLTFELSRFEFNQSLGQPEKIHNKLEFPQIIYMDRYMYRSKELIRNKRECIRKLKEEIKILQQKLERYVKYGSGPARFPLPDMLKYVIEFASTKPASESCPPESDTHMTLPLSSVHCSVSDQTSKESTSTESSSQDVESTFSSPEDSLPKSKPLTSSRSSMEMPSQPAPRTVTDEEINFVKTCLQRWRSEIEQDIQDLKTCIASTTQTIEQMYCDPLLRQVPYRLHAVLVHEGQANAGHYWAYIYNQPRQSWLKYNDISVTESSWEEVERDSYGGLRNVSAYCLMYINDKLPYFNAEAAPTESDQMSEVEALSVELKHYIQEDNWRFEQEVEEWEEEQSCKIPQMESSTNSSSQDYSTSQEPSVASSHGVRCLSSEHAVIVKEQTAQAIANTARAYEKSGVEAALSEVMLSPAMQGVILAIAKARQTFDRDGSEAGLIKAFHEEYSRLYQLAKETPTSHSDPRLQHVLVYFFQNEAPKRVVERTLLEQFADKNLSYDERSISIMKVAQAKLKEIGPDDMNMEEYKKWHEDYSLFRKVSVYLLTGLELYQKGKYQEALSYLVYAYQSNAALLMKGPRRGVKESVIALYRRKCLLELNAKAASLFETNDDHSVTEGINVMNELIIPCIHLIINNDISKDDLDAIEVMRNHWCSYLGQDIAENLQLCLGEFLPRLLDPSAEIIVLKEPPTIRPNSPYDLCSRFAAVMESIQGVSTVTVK", "experiment": "Ubiquitin-Rhodamine 110 Assay for USP28 Activity, Example A-1(b)", "assay_type": "biochemical", "settings": "Ubiquitin-Rhodamine 110 assay, Example A-1(b)", "method_in_brief": "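Single-point screening used 10 μM compound with 90 min room-temperature incubation; follow-up dose-responses (25 μM top, 3-fold) used 75 pM USP28 1-1077 construct, 30 min compound preincubation, 25 nM Ub-Rh110, 20 min reaction, citric acid quench. Rh110 fluorescence normalised to no-enzyme and DMSO controls; IC50 from 4-parameter logistic fit.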", "values": [{"smiles": "Cc1cnc2c(N)c(C(=O)N[C@H]3COc4cc(N5CC6CCC(C5)N6)c(F)cc4C3)sc2n1", "note": "(single isomer, unassigned) [Example 40]", "USP28 A-1(b) IC50 range": "+++ (0.05-0.2 μM)"}, {"smiles": "Cc1cnc2c(N)c(C(=O)N[C@@H]3COc4cc(N5CC6CCC(C5)N6)c(F)cc4C3)sc2n1", "note": "(single isomer, unassigned) [Example 41]", "USP28 A-1(b) IC50 range": "+ (>2 μM)"}, {"smiles": "CCc1cnc2sc(C(=O)N[C@H]3COc4cc(N5CCNCC5)ccc4C3)c(N)c2n1", "note": "[Example 36, (R)-7-amino-2-ethyl-N-(7-(piperazin-1-yl)chroman-3-yl)thieno[2,3-b]pyrazine-6-carboxamide]", "USP28 A-1(b) IC50 range": "++ (0.2-2 μM)"}, {"smiles": "CCc1cnc2sc(C(=O)N[C@@H]3COc4cc(N5CCNCC5)ccc4C3)c(N)c2n1", "note": "[Example 37, (S)-7-amino-2-ethyl-N-(7-(piperazin-1-yl)chroman-3-yl)thieno[2,3-b]pyrazine-6-carboxamide]", "USP28 A-1(b) IC50 range": "+ (>2 μM)"}, {"smiles": "O=C(N[C@H]1COc2cc(N3CCNCC3)ccc2C1)c1cnc2c(ccn2C(F)F)c1", "note": "[Example 38, (R)-1-(difluoromethyl)-N-(7-(piperazin-1-yl)chroman-3-yl)-1H-pyrrolo[2,3-b]pyridine-5-carboxamide]", "USP28 A-1(b) IC50 range": "+ (>2 μM)"}, {"smiles": "O=C(N[C@@H]1COc2cc(N3CCNCC3)ccc2C1)c1cnc2c(ccn2C(F)F)c1", "note": "[Example 39, (S)-1-(difluoromethyl)-N-(7-(piperazin-1-yl)chroman-3-yl)-1H-pyrrolo[2,3-b]pyridine-5-carboxamide]", "USP28 A-1(b) IC50 range": "+ (>2 μM)"}, {"smiles": "Cc1ccc2c(N)c(C(=O)N[C@H]3COc4cc(N5C[C@H]6CNC[C@@H]6C5)ccc4C3)sc2n1", "note": "[Example 43, 3-amino-N-((R)-7-((3aR,6aR)-hexahydropyrrolo[3,4-c]pyrrol-2(1H)-yl)chroman-3-yl)-6-methylthieno[2,3-b]pyridine-2-carboxamide]", "USP28 A-1(b) IC50 range": "+ (>2 μM)"}, {"smiles": "Cc1ccc2c(N)c(C(=O)N[C@@H]3COc4cc(N5C[C@H]6CNC[C@@H]6C5)ccc4C3)sc2n1", "note": "[Example 44, 3-amino-N-((S)-7-((3aR,6aR)-hexahydropyrrolo[3,4-c]pyrrol-2(1H)-yl)chroman-3-yl)-6-methylthieno[2,3-b]pyridine-2-carboxamide]", "USP28 A-1(b) IC50 range": "+ (>2 μM)"}, {"smiles": "Nc1c(C(=O)N[C@H]2COc3cc(N4CCNCC4)ccc3C2)sc2nc(C3CC3)sc12", "note": "[Example 45]", "USP28 A-1(b) IC50 range": "++ (0.2-2 μM)"}, {"smiles": "Cc1nc2sc(C(=O)N[C@@H]3COc4cc(N5CC6CCC(C5)N6)c(F)cc4C3)c(N)c2s1", "note": "[Example 46, N-((3S)-7-(3 8-diazabicyclo[3.2.1]octan-3-yl)-6-fluorochroman-3-yl)-6-amino-2-methylthieno[2,3-d]thiazole-5-carboxamide]", "USP28 A-1(b) IC50 range": "++ (0.2-2 μM)"}, {"smiles": "Cc1nc2sc(C(=O)N[C@H]3COc4cc(N5CC6CCC(C5)N6)c(F)cc4C3)c(N)c2s1", "note": "[Example 47, N-((3R)-7-(3,8-diazabicyclo[3.2.1]octan-3-yl)-6-fluorochroman-3-yl)-6-amino-2-methylthieno[2,3-d]thiazole-5-carboxamide]", "USP28 A-1(b) IC50 range": "+ (>2 μM)"}, {"smiles": "Cc1ccc2c(N)c(C(=O)N[C@H]3COc4cc(N5CCNCC5)cc(Cl)c4C3)sc2n1", "note": "[Example 48, (R)-3-amino-N-(5-chloro-7-(piperazin-1-yl)chroman-3-yl)-6-methylthieno[2,3-b]pyridine-2-carboxamide]", "USP28 A-1(b) IC50 range": "+++ (0.05-0.2 μM)"}, {"smiles": "Cc1ccc2c(N)c(C(=O)N[C@@H]3COc4cc(N5CCNCC5)cc(Cl)c4C3)sc2n1", "note": "[Example 49, (S)-3-amino-N-(5-chloro-7-(piperazin-1-yl)chroman-3-yl)-6-methylthieno[2,3-b]pyridine-2-carboxamide]", "USP28 A-1(b) IC50 range": "+ (>2 μM)"}, {"smiles": "O=C(N[C@H]1COc2cc(N3CC4CCC(C3)N4)ccc2C1)c1cnc2c(c1)CCCN2", "note": "[Example 50, N-((3R)-7-(3,8-diazabicyclo[3.2.1]octan-3-yl)chroman-3-yl)-5,6,7,8-tetrahydro-1,8-naphthyridine-3-carboxamide]", "USP28 A-1(b) IC50 range": "++ (0.2-2 μM)"}, {"smiles": "O=C(N[C@H]1COc2cc(N3CC4CCC(C3)N4)ccc2C1)c1cnc2c(c1)CCCO2", "note": "[Example 51, N-((3R)-7-(3,8-diazabicyclo[3.2.1]octan-3-yl)chroman-3-yl)-3,4-dihydro-2H-pyrano[2,3-b]pyridine-6-carboxamide]", "USP28 A-1(b) IC50 range": "+ (>2 μM)"}, {"smiles": "O=C(N[C@H]1COc2cc(N3CCNCC3)ccc2C1)c1ccc(NCc2ccccc2)nc1", "note": "[Example 52, (R)-6-(benzylamino)-N-(7-(piperazin-1-yl)chroman-3-yl)nicotinamide]", "USP28 A-1(b) IC50 range": "+ (>2 μM)"}, {"smiles": "C[C@H](Nc1ccc(C(=O)N[C@H]2COc3cc(N4CCNCC4)ccc3C2)cn1)c1ccccc1", "note": "[Example 53, 6-(((S)-1-phenylethyl)amino)-N-((R)-7-(piperazin-1-yl)chroman-3-yl)nicotinamide]", "USP28 A-1(b) IC50 range": "+ (>2 μM)"}, {"smiles": "C[C@@H](Nc1ccc(C(=O)N[C@H]2COc3cc(N4CCNCC4)ccc3C2)cn1)c1ccccc1", "note": "[Example 54, 6-(((R)-1-phenylethyl)amino)-N-((R)-7-(piperazin-1-yl)chroman-3-yl)nicotinamide]", "USP28 A-1(b) IC50 range": "+ (>2 μM)"}, {"smiles": "Cc1ccc2c(N)c(C(=O)N[C@H]3COc4c(F)c(N5CCNCC5)cc(F)c4C3)sc2n1", "note": "[Example 55, (R)-3-amino-N-(5,8-difluoro-7-(piperazin-1-yl)chroman-3-yl)-6-methylthieno[2,3-b]pyridine-2-carboxamide]", "USP28 A-1(b) IC50 range": "++++ (0.001-0.05 μM)"}, {"smiles": "Cc1nc2sc(C(=O)N[C@H]3COc4c(F)c(N5CCNCC5)cc(F)c4C3)c(N)c2s1", "note": "[Example 56, (R)-6-amino-N-(5,8-difluoro-7-(piperazin-1-yl)chroman-3-yl)-2-methylthieno[2,3-d]thiazole-5-carboxamide]", "USP28 A-1(b) IC50 range": "+++ (0.05-0.2 μM)"}, {"smiles": "O=C(N[C@H]1COc2cc(N3CCNCC3)ccc2C1)c1cnc2c(c1)CC[C@H]2O", "note": "[Example 57, (R)-7-hydroxy-N-((R)-7-(piperazin-1-yl)chroman-3-yl)-6,7-dihydro-5H-cyclopenta[b]pyridine-3-carboxamide]", "USP28 A-1(b) IC50 range": "+ (>2 μM)"}, {"smiles": "O=C(N[C@H]1COc2cc(N3CCNCC3)ccc2C1)c1cnc2c(c1)CC[C@@H]2O", "note": "[Example 58, (S)-7-hydroxy-N-((R )-7-(piperazin-1-yl)chroman-3-yl)-6,7-dihydro-5H-cyclopenta[b]pyridine-3-carboxamide]", "USP28 A-1(b) IC50 range": "+ (>2 μM)"}, {"smiles": "O=C(N[C@H]1COc2cc(N3CCNCC3)ccc2C1)c1cnc2c(ccn2Cc2ccccc2)c1", "note": "[Example 59, (R)-1-benzyl-N-(7-(piperazin-1-yl)chroman-3-yl)-1H-pyrrolo[2,3-b]pyridine-5-carboxamide]", "USP28 A-1(b) IC50 range": "+++ (0.05-0.2 μM)"}, {"smiles": "Cc1cnc2c(N)c(C(=O)N[C@H]3COc4c(C#N)c(N5CCNCC5)cc(F)c4C3)sc2n1", "note": "[Example 60, (R)-7-amino-N-(8-cyano-5-fluoro-7-(piperazin-1-yl)chroman-3-yl)-3-methylthieno[2,3-b]pyrazine-6-carboxamide]", "USP28 A-1(b) IC50 range": "++ (0.2-2 μM)"}, {"smiles": "Cc1ccc2c(N)c(C(=O)N[C@H]3COc4cc(N5CCNCC5)c(F)c(F)c4C3)sc2n1", "note": "[Example 61, (R)-3-amino-N-(5,6-difluoro-7-(piperazin-1-yl)chroman-3-yl)-6-methylthieno[2,3-b]pyridine-2-carboxamide]", "USP28 A-1(b) IC50 range": "+++ (0.05-0.2 μM)"}, {"smiles": "Cc1ccc2c(N)c(C(=O)N[C@H]3COc4cc([C@H]5CCNC[C@H]5O)ccc4C3)sc2n1", "note": "[Example 62, 3-amino-N-((R)-7-((3S,4R)-3-hydroxypiperidin-4-yl)chroman-3-yl)-6-methylthieno[2,3-b]pyridine-2-carboxamide]", "USP28 A-1(b) IC50 range": "++++ (0.001-0.05 μM)"}, {"smiles": "Cc1ccc2c(N)c(C(=O)N[C@H]3COc4cc([C@@H]5CCNC[C@@H]5O)ccc4C3)sc2n1", "note": "[Example 63, 3-amino-N-((R)-7-((3R,4S)-3-hydroxypiperidin-4-yl)chroman-3-yl)-6-methylthieno[2,3-b]pyridine-2-carboxamide]", "USP28 A-1(b) IC50 range": "+++ (0.05-0.2 μM)"}, {"smiles": "C[C@H]1CCc2cc(C(=O)N[C@H]3COc4cc(N5CC6CCC(C5)N6)ccc4C3)cnc2N1", "note": "[Example 73, (7S)-N-((3R)-7-(3,8-diazabicyclo[3.2.1]octan-3-yl)chroman-3-yl)-7-methyl-5,6,7,8-tetrahydro-1,8-naphthyridine-3-carboxamide]", "USP28 A-1(b) IC50 range": "+ (>2 μM)"}]}]}
